In one series the test system is P. mirabilis 889. The series can be described thus: MIC against P. mirabilis 889. The format is cell-based. Conditions: for MIC: Proteus mirabilis, 889, P. mirabilis 889.
In a further series the test system is E. coli 96 R+. As to the kind of experiment: in vivo test in mice against experimental infection, E. coli 96 R+. To be noted: Escherichia coli, sc, mice (5 mice/group), s.c., dosed at 1 and 5 hours after infection, read-out: Total s.c. CD50. The method, then:
(§1) The compound of Example 5 was tested in vivo in mice against experimental infections.
(§2) Organism Total* s.c. CD50 (Mg/Kg)
(§3) *dosed at 1 and 5 hours after infection

The subject of the next series is E. coli 96 R-. The series can be described thus: in vivo test in mice against experimental infection, E. coli 96 R-. To be noted: Escherichia coli, sc, mice (5 mice/group), s.c., dosed at 1 and 5 hours after infection, read-out: Total s.c. CD50. The protocol: as §1, §2, §3
The subject of a further series is K. aerogenes T767. As to the kind of experiment: in vivo test in mice against experimental infection, K. aerogenes T767. To be noted: Klebsiella aerogenes, sc, mice (5 mice/group), s.c., dosed at 1 and 5 hours after infection, read-out: Total s.c. CD50. The method, then:
as §1, §2, §3

A short description of series [1]: blood concentration in mice after subcutaneous administration. It counts as in vivo. Conditions: mouse, sc, mice (5), 50 mg/kg. The protocol: The compound of Example 5 was administered to mice (5) by the subcutaneous route at a dosage of 50 mg/kg and the blood concentration determined.

The structures appear in SMILES notation. ≈ marks a conversion by molar mass, not a printed value. Where a name gives a salt, the structure may show the parent alone.

The term MIC denotes the smallest concentration in the dilution series that meets the test's criterion for growth inhibition. Low readings indicate inhibition by little substance, high ones a need for much substance. As usually defined, the AUC is the area under the concentration-time curve, a measure of exposure. Higher therefore signals more exposure. For `CCN1CCN(C(=O)N[C@@H](C(=O)N[C@]2(NC=O)C(=O)N3[C@@H](C(=O)O)C(C)(C)S[C@@H]32)c2ccc(O)cc2)C(=O)C1=O` [Example 5, 6α-Formamido-6β-[D-2-[(4-ethyl-2,3-dioxopiperazin-1-yl)carbonylamino]-2-(4-hydroxyphenyl)acetamido]penicillanic acid, sodium salt], the minimum inhibitory concentration (MIC) against P. mirabilis 889 came out at 0.1 µg/mL. The ED50 in the series on E. coli 96 R+ was 5.2 mg/kg; with E. coli 96 R-, under 3.1 mg/kg; with K. aerogenes T767, 3.7 mg/kg. Also, the exposure (AUC) in series [1] is 11000 ng·h/mL. For the same molecule, the concentration at 5 min in series [1] (5 mins) is 24400 ng/mL. The molecule also came in with a concentration at 10 min in series [1] (10 mins) of 23200 ng/mL. Also, the concentration at 20 min in series [1] (20 mins) stood at 14500 ng/mL. The molecule also came in with a concentration at 0.5 h in series [1] (30 mins) of 11000 ng/mL. Moreover, in series [1] (60 mins), the concentration at 1 h was under 900 ng/mL. The concentration at 2 h in series [1] (120 mins) was under 900 ng/mL.

Regarding `Cn1nnnc1SCC1=C(C(=O)O)N2C(=O)[C@@](NC=O)(NC(=O)Cc3cccs3)[C@H]2SC1` [Example 53, 7α-Formamido-7β-[2-(thien-2-yl)acetamido]-3-[(1-methyl-1H-tetrazol-5-yl)thiomethyl]ceph-3-em-4-carboxylic acid, sodium salt], the lowest concentration to inhibit growth with P. mirabilis 889 (MIC) was 10 µg/mL.

With `Cc1nnc(SCC2=C(C(=O)O)N3C(=O)[C@@](NC=O)(NC(=O)Cc4cccs4)[C@H]3SC2)s1` [Example 56, 7α-Formamido-7β-[2-(thien-2-yl)acetamido]-3-[(2-methyl-1,3,4-thiadiazol-5-yl)thiomethyl]ceph-3-em-4-carboxylate acid, sodium salt], inhibition of growth against P. mirabilis 889 (MIC) required 25 µg/mL.

Turning to `CCN1CCN(C(=O)N[C@H](C(=O)N[C@]2(NC=O)C(=O)N3[C@@H](C(=O)O)C(C)(C)S[C@@H]32)c2ccc(O)c(O)c2)C(=O)C1=O` [Example 58, 6β-[L-2-[(4-ethyl-2,3-dioxopiperazin-1-yl)carbonyllamino]-2-(3,4-dihydroxyphenyl)acetamido]-6α-formamidopenicillanic acid, sodium salt], in the series with P. mirabilis 889, the lowest concentration to inhibit growth (MIC) was 100 µg/mL.

`O=CN[C@@]1(NC(=O)Cc2cccs2)C(=O)N2C(C(=O)[O-])=C(C[n+]3ccccc3)CS[C@@H]21` [Example 60, 7α-Formamido-3-(pyridiniummethyl)-7β-(thien-2-ylacetamido)-ceph-3-em-4-carboxylate] showed an MIC in the series on P. mirabilis 889 of 50 µg/mL (≈ 109 µM).

Regarding `CC(=O)Oc1ccc([C@@H](N)C(=O)N[C@]2(NC=O)C(=O)N3[C@@H](C(=O)O)C(C)(C)S[C@@H]32)cc1OC(C)=O` [Example 64, 6β-[D-2-Amino-2-(3,4-diacetoxyphenyl)acetamido]-6α-formamido penicillanic acid], the lowest concentration to inhibit growth against P. mirabilis 889 (MIC) was 100 µg/mL (≈ 197 µM).

For `CC(=O)OCC1=C(C(=O)O)N2C(=O)[C@@](NC=O)(NC(=O)/C(=N\OC(C)(C)C(=O)O)c3csc(N)n3)[C@H]2SC1` [Example 67, 7β-[(Z)-2-(2-Aminothiazol-4-yl)-2-(1-carboxy-1-methylethoxyimino)acetamido]-7α-formamidocephalosporanic acid disodium salt], in the series with P. mirabilis 889, 30 µg/mL was the least that counted as inhibitory (MIC).

On to `CCN1CCN(C(=O)NC(C(=O)NC2(NC=O)C(=O)N3C(C(=O)[O-])=C(CSc4nnc(C)s4)CSC32)c2ccc(OC(C)=O)c(OC(C)=O)c2)C(=O)C1=O.[Na+]` (stereo not drawn) [Example 68, 7β-[2-(3,4-Diacetoxyphenyl)-2-[(4-ethyl-2,3-dioxopiperazin-1-yl)carbonylamino]acetamido]-7α-formamido-3-[(2-methyl-1,3,4-thiadiazol-5-yl)thiomethyl]ceph-3-em-4-carboxylic acid, sodium salt], for which the “MIC against P. mirabilis 889” value in the series with P. mirabilis 889 (P. mirabilis 889) worked out at 0.1 µg/mL.

In the series on P. mirabilis 889, `CCN1CCN(C(=O)N[C@@H](C(=O)N[C@]2(NC=O)C(=O)N3C(C(=O)O)=C(COC(C)=O)CS[C@@H]32)c2ccc(O)c(O)c2)C(=O)C1=O` [Example 69, 7β-[D-2-[(4-Ethyl-2,3-dioxopiperazin-1-yl)carbonylamino]-2-(3,4-dihydroxyphenyl)acetamido]-7α-formamidocephalosporanic acid, sodium salt] registered an MIC of 0.1 µg/mL.
